Common to all, as to experiment: Test Example 4: herbicidal effect by application to foliage (diluvial soil, plastic box)
What all share (format): in vivo

One test relates to Abutilon theophrasti. To be noted: for M (Abutilon theophrasti) herbicidal effect grade: Application herbicide amount 320 g/ha, foliage application. The gist of the method:
(§1)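 Scores run from 0 (herbicidal ratio ≤5%) to 5 (≥90%, almost fully withered) and were assessed three weeks after foliar spraying. Seedlings had been raised for 14 days at 25-30° C in sterilized diluvial soil before treatment, with the emulsion diluted in water to the stated g/ha dose.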

The next test deals with Alopecurus myosuroides. To be noted: for J (Alopecurus myosuroides) herbicidal effect grade: Application herbicide amount 320 g/ha, foliage application. The method in brief:
as §1

A further test concerns Amaranthus retroflexus. To be noted: for N (Amaranthus retroflexus) herbicidal effect grade: Application herbicide amount 320 g/ha, foliage application. The gist of the method:
as §1

The next test deals with Apera spica-venti. To be noted: for L (Apera spica-venti.) herbicidal effect grade: Application herbicide amount 320 g/ha, foliage application. The gist of the method: as §1
Another test concerns Avena fatua. To be noted: for I (Avena fatua) herbicidal effect grade: Application herbicide amount 320 g/ha, foliage application. The method in brief:
as §1

A further test deals with Chenopodium album. To be noted: for O (Chenopodium album) herbicidal effect grade: Application herbicide amount 320 g/ha, foliage application. The method in brief: as §1
A further test has as its system Digitaria ciliaris. To be noted: for F (Digitaria ciliaris) herbicidal effect grade: Application herbicide amount 320 g/ha, foliage application. The gist of the method: as §1
In test [1] the test system is Echinochloa crus-galli var. crus-galli. To be noted: for H (Echinochloa crus-galli var. crus-galli) herbicidal effect grade: Application herbicide amount 320 g/ha, foliage application. The gist of the method:
as §1

The next test concerns Galium spurium. To be noted: for Q (Galium spurium) herbicidal effect grade: Application herbicide amount 320 g/ha, foliage application. The gist of the method: as §1
For a further test, the system named is Lolium multiflorum Lam. To be noted: for K (Lolium multiflorum Lam.) herbicidal effect grade: Application herbicide amount 320 g/ha, foliage application. The gist of the method: as §1
The next test deals with Setaria viridis. To be noted: for G (Setaria viridis) herbicidal effect grade: Application herbicide amount 320 g/ha, foliage application. The method in brief:
as §1

The next test relates to Stellaria media. To be noted: for P (Stellaria media) herbicidal effect grade: Application herbicide amount 320 g/ha, foliage application. The method in brief:
as §1

Another test has as its system Veronica persica. To be noted: for R (Veronica persica) herbicidal effect grade: Application herbicide amount 320 g/ha, foliage application. The gist of the method: as §1
The mark [2] stands for this setting: application to foliage, application herbicide amount 320 g/ha.

Take `C#CCN(C)c1nnc2c(C(=O)Nc3nnc(C)o3)ccc(C(F)(F)F)n12` [1-152]: the “M (Abutilon theophrasti) herbicidal effect grade” value with Abutilon theophrasti was 3 (Herbicidal ratio of 40% or more and less than 70%). The “J (Alopecurus myosuroides) herbicidal effect grade” value in the test with Alopecurus myosuroides is 0 (Herbicidal ratio of 5% or less (almost no effect)). The “N (Amaranthus retroflexus) herbicidal effect grade” value with Amaranthus retroflexus was 4 (Herbicidal ratio of 70% or more and less than 90%). The “L (Apera spica-venti.) herbicidal effect grade” value with Apera spica-venti. was 1 (Herbicidal ratio of 5% or more and less than 20%). Further, the “I (Avena fatua) herbicidal effect grade” value in the test with Avena fatua is 2 (Herbicidal ratio of 20% or more and less than 40%). In addition, the “O (Chenopodium album) herbicidal effect grade” value in the test with Chenopodium album is on record as 5 (Herbicidal ratio of 90% or more (almost completely withered)). For the same compound, the “F (Digitaria ciliaris) herbicidal effect grade” value with Digitaria ciliaris was 4 (Herbicidal ratio of 70% or more and less than 90%). The “H (Echinochloa crus-galli var. crus-galli) herbicidal effect grade” value in test [1] is 4 (Herbicidal ratio of 70% or more and less than 90%). The “Q (Galium spurium) herbicidal effect grade” value in the test on Galium spurium was 1 (Herbicidal ratio of 5% or more and less than 20%). Moreover, the “K (Lolium multiflorum Lam.) herbicidal effect grade” value in the test with Lolium multiflorum Lam. was 1 (Herbicidal ratio of 5% or more and less than 20%). In the test with Setaria viridis, the “G (Setaria viridis) herbicidal effect grade” value was 3 (Herbicidal ratio of 40% or more and less than 70%). Also, the “P (Stellaria media) herbicidal effect grade” value in the test with Stellaria media is 4 (Herbicidal ratio of 70% or more and less than 90%). Besides, the “R (Veronica persica) herbicidal effect grade” value in the test on Veronica persica was 3 (Herbicidal ratio of 40% or more and less than 70%).

Take `COc1ccc(CN(C)c2nnc3c(C(=O)Nc4nnc(C)o4)ccc(C(F)(F)F)n23)cc1` [1-167]: the “M: herbicidal effect on Abutilon theophrasti” value in the test with Abutilon theophrasti (setting [2]) is 2 (Herbicidal ratio of 20% or more and less than 40%). The “J: herbicidal effect on Alopecurus myosuroides” value in the test on Alopecurus myosuroides (setting [2]) was 0 (Herbicidal ratio of 5% or less (almost no effect)). The “N: herbicidal effect on Amaranthus retroflexus” value with Amaranthus retroflexus (setting [2]) is 2 (Herbicidal ratio of 20% or more and less than 40%). Further, the “L: herbicidal effect on Apera spica-venti.” value in the test on Apera spica-venti. (setting [2]) is 1 (Herbicidal ratio of 5% or more and less than 20%). Also, the “I: herbicidal effect on Avena fatua” value in the test with Avena fatua (setting [2]) was 1 (Herbicidal ratio of 5% or more and less than 20%). The “O: herbicidal effect on Chenopodium album” value with Chenopodium album (setting [2]) is 5 (Herbicidal ratio of 90% or more (almost completely withered)). In addition, in the test with Digitaria ciliaris (setting [2]), the “F: herbicidal effect on Digitaria ciliaris” value was 0 (Herbicidal ratio of 5% or less (almost no effect)). Further, the “H: herbicidal effect on Echinochloa crus-galli var. crus-galli” value in test [1] (setting [2]) is 2 (Herbicidal ratio of 20% or more and less than 40%). For the same compound, in the test on Galium spurium (setting [2]), the “Q: herbicidal effect on Galium spurium” value is 2 (Herbicidal ratio of 20% or more and less than 40%). In addition, the “K: herbicidal effect on Lolium multiflorum Lam.” value in the test with Lolium multiflorum Lam. (setting [2]) was 1 (Herbicidal ratio of 5% or more and less than 20%). For the same compound, the “G: herbicidal effect on Setaria viridis” value in the test with Setaria viridis (setting [2]) is reported as 0 (Herbicidal ratio of 5% or less (almost no effect)). The “P: herbicidal effect on Stellaria media” value in the test with Stellaria media (setting [2]) is 5 (Herbicidal ratio of 90% or more (almost completely withered)). For the same compound, in the test with Veronica persica (setting [2]), the “R: herbicidal effect on Veronica persica” value is 4 (Herbicidal ratio of 70% or more and less than 90%).

As to `COc1ccc(-c2nnc3c(C(=O)Nc4nnco4)ccc(C(F)(F)F)n23)cc1` [1-149], in the test on Abutilon theophrasti, the “M (Abutilon theophrasti) herbicidal effect grade” value is 3 (Herbicidal ratio of 40% or more and less than 70%). Further, the “J (Alopecurus myosuroides) herbicidal effect grade” value with Alopecurus myosuroides was 1 (Herbicidal ratio of 5% or more and less than 20%). In addition, the “N (Amaranthus retroflexus) herbicidal effect grade” value in the test on Amaranthus retroflexus is 3 (Herbicidal ratio of 40% or more and less than 70%). Also, the “L (Apera spica-venti.) herbicidal effect grade” value in the test with Apera spica-venti. is 2 (Herbicidal ratio of 20% or more and less than 40%). Besides, the “I (Avena fatua) herbicidal effect grade” value with Avena fatua is 1 (Herbicidal ratio of 5% or more and less than 20%). The “O (Chenopodium album) herbicidal effect grade” value in the test with Chenopodium album is 5 (Herbicidal ratio of 90% or more (almost completely withered)). Besides, the “F (Digitaria ciliaris) herbicidal effect grade” value in the test on Digitaria ciliaris was 4 (Herbicidal ratio of 70% or more and less than 90%). In addition, the “H (Echinochloa crus-galli var. crus-galli) herbicidal effect grade” value in test [1] was 4 (Herbicidal ratio of 70% or more and less than 90%). The “Q (Galium spurium) herbicidal effect grade” value in the test with Galium spurium was 3 (Herbicidal ratio of 40% or more and less than 70%). For the same compound, the “K (Lolium multiflorum Lam.) herbicidal effect grade” value in the test with Lolium multiflorum Lam. is 1 (Herbicidal ratio of 5% or more and less than 20%). In the test on Setaria viridis, the “G (Setaria viridis) herbicidal effect grade” value is 3 (Herbicidal ratio of 40% or more and less than 70%). Also, in the test on Stellaria media, the “P (Stellaria media) herbicidal effect grade” value is listed as 5 (Herbicidal ratio of 90% or more (almost completely withered)). Further, in the test on Veronica persica, the “R (Veronica persica) herbicidal effect grade” value is listed as 5 (Herbicidal ratio of 90% or more (almost completely withered)).

As to `COc1ccc(Cc2nnc3c(C(=O)Nc4nnco4)ccc(C(F)(F)F)n23)cc1` [1-151], in the test on Abutilon theophrasti, the “M (Abutilon theophrasti) herbicidal effect grade” value was 3 (Herbicidal ratio of 40% or more and less than 70%). Also, the “J (Alopecurus myosuroides) herbicidal effect grade” value in the test with Alopecurus myosuroides was 1 (Herbicidal ratio of 5% or more and less than 20%). Moreover, the “N (Amaranthus retroflexus) herbicidal effect grade” value with Amaranthus retroflexus is on record as 5 (Herbicidal ratio of 90% or more (almost completely withered)). Further, the “L (Apera spica-venti.) herbicidal effect grade” value in the test on Apera spica-venti. was 2 (Herbicidal ratio of 20% or more and less than 40%). Besides, the “I (Avena fatua) herbicidal effect grade” value with Avena fatua is 3 (Herbicidal ratio of 40% or more and less than 70%). For the same compound, in the test on Chenopodium album, the “O (Chenopodium album) herbicidal effect grade” value is 5 (Herbicidal ratio of 90% or more (almost completely withered)). Moreover, the “F (Digitaria ciliaris) herbicidal effect grade” value with Digitaria ciliaris is reported as 5 (Herbicidal ratio of 90% or more (almost completely withered)). The “H (Echinochloa crus-galli var. crus-galli) herbicidal effect grade” value in test [1] was 5 (Herbicidal ratio of 90% or more (almost completely withered)). Further, in the test with Galium spurium, the “Q (Galium spurium) herbicidal effect grade” value was 4 (Herbicidal ratio of 70% or more and less than 90%). Further, the “K (Lolium multiflorum Lam.) herbicidal effect grade” value in the test on Lolium multiflorum Lam. is 3 (Herbicidal ratio of 40% or more and less than 70%). For the same compound, the “G (Setaria viridis) herbicidal effect grade” value with Setaria viridis is 3 (Herbicidal ratio of 40% or more and less than 70%). In addition, in the test with Stellaria media, the “P (Stellaria media) herbicidal effect grade” value is recorded as 5 (Herbicidal ratio of 90% or more (almost completely withered)). In addition, the “R (Veronica persica) herbicidal effect grade” value with Veronica persica is recorded as 5 (Herbicidal ratio of 90% or more (almost completely withered)).

Turning to `CSCc1nnc2c(C(=O)Nc3nnco3)ccc(C(F)(F)F)n12` [1-146], the “M (Abutilon theophrasti) herbicidal effect grade” value in the test on Abutilon theophrasti is 4 (Herbicidal ratio of 70% or more and less than 90%). Further, the “J (Alopecurus myosuroides) herbicidal effect grade” value with Alopecurus myosuroides is 2 (Herbicidal ratio of 20% or more and less than 40%). The “N (Amaranthus retroflexus) herbicidal effect grade” value in the test with Amaranthus retroflexus is given as 5 (Herbicidal ratio of 90% or more (almost completely withered)). The “L (Apera spica-venti.) herbicidal effect grade” value in the test with Apera spica-venti. is 4 (Herbicidal ratio of 70% or more and less than 90%). Also, in the test with Avena fatua, the “I (Avena fatua) herbicidal effect grade” value is 4 (Herbicidal ratio of 70% or more and less than 90%). In the test on Chenopodium album, the “O (Chenopodium album) herbicidal effect grade” value was 5 (Herbicidal ratio of 90% or more (almost completely withered)). Further, the “F (Digitaria ciliaris) herbicidal effect grade” value in the test on Digitaria ciliaris is on record as 5 (Herbicidal ratio of 90% or more (almost completely withered)). Besides, the “H (Echinochloa crus-galli var. crus-galli) herbicidal effect grade” value in [1] was 5 (Herbicidal ratio of 90% or more (almost completely withered)). Moreover, the “Q (Galium spurium) herbicidal effect grade” value with Galium spurium was 5 (Herbicidal ratio of 90% or more (almost completely withered)). The “K (Lolium multiflorum Lam.) herbicidal effect grade” value in the test with Lolium multiflorum Lam. was 4 (Herbicidal ratio of 70% or more and less than 90%). Further, the “G (Setaria viridis) herbicidal effect grade” value with Setaria viridis is listed as 5 (Herbicidal ratio of 90% or more (almost completely withered)). In addition, the “P (Stellaria media) herbicidal effect grade” value in the test with Stellaria media was 5 (Herbicidal ratio of 90% or more (almost completely withered)). Also, in the test with Veronica persica, the “R (Veronica persica) herbicidal effect grade” value was 5 (Herbicidal ratio of 90% or more (almost completely withered)).

Consider `CCC(CC)c1nnc2c(C(=O)Nc3nnco3)ccc(C(F)(F)F)n12` [1-145], for which, in the test with Abutilon theophrasti, the “M (Abutilon theophrasti) herbicidal effect grade” value is 3 (Herbicidal ratio of 40% or more and less than 70%). Further, the “J (Alopecurus myosuroides) herbicidal effect grade” value in the test with Alopecurus myosuroides is 1 (Herbicidal ratio of 5% or more and less than 20%). In the test on Amaranthus retroflexus, the “N (Amaranthus retroflexus) herbicidal effect grade” value is 4 (Herbicidal ratio of 70% or more and less than 90%). Further, the “L (Apera spica-venti.) herbicidal effect grade” value with Apera spica-venti. was 3 (Herbicidal ratio of 40% or more and less than 70%). In the test with Avena fatua, the “I (Avena fatua) herbicidal effect grade” value was 3 (Herbicidal ratio of 40% or more and less than 70%). Moreover, the “O (Chenopodium album) herbicidal effect grade” value in the test with Chenopodium album is given as 5 (Herbicidal ratio of 90% or more (almost completely withered)). In the test with Digitaria ciliaris, the “F (Digitaria ciliaris) herbicidal effect grade” value is reported as 5 (Herbicidal ratio of 90% or more (almost completely withered)). For the same compound, the “H (Echinochloa crus-galli var. crus-galli) herbicidal effect grade” value in [1] is listed as 5 (Herbicidal ratio of 90% or more (almost completely withered)). Moreover, the “Q (Galium spurium) herbicidal effect grade” value in the test with Galium spurium was 1 (Herbicidal ratio of 5% or more and less than 20%). The “K (Lolium multiflorum Lam.) herbicidal effect grade” value in the test on Lolium multiflorum Lam. is 2 (Herbicidal ratio of 20% or more and less than 40%). The “G (Setaria viridis) herbicidal effect grade” value in the test with Setaria viridis is 4 (Herbicidal ratio of 70% or more and less than 90%). In addition, in the test with Stellaria media, the “P (Stellaria media) herbicidal effect grade” value was 5 (Herbicidal ratio of 90% or more (almost completely withered)). The “R (Veronica persica) herbicidal effect grade” value with Veronica persica was 5 (Herbicidal ratio of 90% or more (almost completely withered)).

(Values after patent US9708314B2, “Heterocyclic amide compound” (NISSAN CHEMICAL INDUSTRIES, LTD., priority 2013, dated 2017).)
